29 compounds from patent publication US20240376084A1, “INHIBITORS OF ALPHA-HEMOLYSIN OF STAPHYLOCOCCUS AUREUS” (Helmholtz-Zentrum Fur Infektionsforschung GmbH, priority 2021, published 2024) can be followed below.

Assay [1] deals with S. aureus Alpha hemolysin (Staphylococcus aureus, UniProt P09616). Briefly: cell-based. The conditions noted are these: A549-LDH Assay activity.
Assay [2] addresses hemolysin alpha from Staphylococcus aureus (Staphylococcus aureus, UniProt P09616). Put plainly: cell-based.

A value given as a limit tells only on which side of the number the result lay.

hemolysin alpha from Staphylococcus aureus, sequence (P09616 27-319 limits assumed): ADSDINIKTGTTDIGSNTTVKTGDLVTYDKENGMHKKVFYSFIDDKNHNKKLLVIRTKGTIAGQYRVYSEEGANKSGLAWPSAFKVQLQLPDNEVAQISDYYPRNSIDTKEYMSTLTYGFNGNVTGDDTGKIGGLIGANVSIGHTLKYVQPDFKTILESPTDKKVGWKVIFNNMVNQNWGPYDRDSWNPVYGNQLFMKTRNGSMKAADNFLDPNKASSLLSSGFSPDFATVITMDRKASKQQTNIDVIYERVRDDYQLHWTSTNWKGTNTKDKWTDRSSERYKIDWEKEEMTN
S. aureus Alpha hemolysin, sequence (P09616 27-319 limits assumed): as above

In assay [1], `Cc1cc2[nH]c(=O)c(=O)[nH]c2cc1S(=O)(=O)Nc1ccc(-c2ccccc2)c(Cl)c1` [Compound 1, N-(2-chloro-[1,1′-biphenyl]-4-yl)-7-methyl-2,3-dioxo-1,2,3,4-tetrahydroquinoxaline-6-sulfonamide] came in with an EC50 of 30 to 100 nM. The compound also gave an IC50 in assay [2] of under 30 nM. In the same order, the values of `Cc1cc2[nH]c(=O)c(=O)[nH]c2cc1S(=O)(=O)Nc1ccc(-c2ccc(F)c(Cl)c2F)c(Cl)c1` [Compound 2, N-(2,3′-dichloro-2′,4′-difluoro-[1,1′-biphenyl]-4-yl)-7-methyl-2,3-dioxo-1,2,3,4-tetrahydroquinoxaline-6-sulfonamide] are 100 to 1000 nM and under 30 nM. As to `Cc1cc2[nH]c(=O)c(=O)[nH]c2cc1S(=O)(=O)Nc1ccc(-c2ccc(F)cc2)c(Cl)c1` [Compound 3, N-(2-chloro-4′-fluoro-[1,1′-biphenyl]-4-yl)-7-methyl-2,3-dioxo-1,2,3,4-tetrahydroquinoxaline-6-sulfonamide], in assay [1], the EC50 was in the range of 30 to 100 nM. Moreover, in assay [2], the IC50 was under 30 nM. In the same order, the values of `Cc1cc2[nH]c(=O)c(=O)[nH]c2cc1S(=O)(=O)Nc1ccc(-c2cccc(N(C)C)c2)c(Cl)c1` [Compound 4, N-(2-chloro-3′-(dimethylamino)-[1,1′-biphenyl]-4-yl)-7-methyl-2,3-dioxo-1,2,3,4-tetrahydroquinoxaline-6-sulfonamide] are 30 to 100 nM and under 30 nM. Regarding `Cc1cc2[nH]c(=O)c(=O)[nH]c2cc1S(=O)(=O)Nc1ccc(-c2ccccc2F)c(Cl)c1` [Compound 5, N-(2-chloro-2′-fluoro-[1,1′-biphenyl]-4-yl)-7-methyl-2,3-dioxo-1,2,3,4-tetrahydroquinoxaline-6-sulfonamide], the EC50 in assay [1] fell in the range of 30 to 100 nM. The compound also displayed an IC50 in assay [2] of under 30 nM. In assay [1], `Cc1cc2[nH]c(=O)c(=O)[nH]c2cc1S(=O)(=O)Nc1ccc(-c2cccc(N3CCCC3)c2)c(Cl)c1` [Compound 6, N-(2-chloro-3′-(pyrrolidin-1-yl)-[1,1′-biphenyl]-4-yl)-7-methyl-2,3-dioxo-1,2,3,4-tetrahydroquinoxaline-6-sulfonamide] displayed an EC50 of 100 to 1000 nM. Also, the IC50 in assay [2] is under 30 nM. The compound `Cc1cc2[nH]c(=O)c(=O)[nH]c2cc1S(=O)(=O)Nc1ccc(-c2ccsc2)c(Cl)c1` [Compound 7, N-(3-chloro-4-(thiophen-3-yl)phenyl)-7-methyl-2,3-dioxo-1,2,3,4-tetrahydroquinoxaline-6-sulfonamide] yielded an EC50 in assay [1] of 100 to 1000 nM. In assay [2], this compound gave an IC50 of under 30 nM. The compound `Cc1cc2[nH]c(=O)c(=O)[nH]c2cc1S(=O)(=O)Nc1ccc(-c2ccc(Cl)cc2)c(Cl)c1` [Compound 8, N-(2,4′-dichloro-[1,1′-biphenyl]-4-yl)-7-methyl-2,3-dioxo-1,2,3,4-tetrahydroquinoxaline-6-sulfonamide] registered an EC50 in assay [1] of 100 to 1000 nM. The IC50 in assay [2] is under 30 nM.

With `CN(C)c1cccc(-c2ccc(NS(=O)(=O)c3cc4[nH]c(=O)c(=O)[nH]c4cc3Cl)cc2Cl)c1` [Compound 9, 7-chloro-N-(2-chloro-3′-(dimethylamino)-[1,1′-biphenyl]-4-yl)-2,3-dioxo-1,2,3,4-tetrahydroquinoxaline-6-sulfonamide], the EC50 in assay [1] lay within 100 to 1000 nM. In assay [2], this compound had a concentration for half-maximal inhibition (IC50) of under 30 nM. Take `O=c1[nH]c2cc(F)c(S(=O)(=O)Nc3ccc(-c4ccc5c(c4)NCC5)c(Cl)c3)cc2[nH]c1=O` [Compound 10, N-(3-chloro-4-(indolin-6-yl)phenyl)-7-fluoro-2,3-dioxo-1,2,3,4-tetrahydroquinoxaline-6-sulfonamide]: the EC50 in assay [1] lay in the range of 100 to 1000 nM. Moreover, the IC50 in assay [2] was under 30 nM.

As for `Cc1cc2[nH]c(=O)c(=O)[nH]c2cc1S(=O)(=O)Nc1ccc(-c2ccc(F)c(Cl)c2)c(Cl)c1` [Compound 11, N-(2,3′-dichloro-4′-fluoro-[1,1′-biphenyl]-4-yl)-7-methyl-2,3-dioxo-1,2,3,4-tetrahydroquinoxaline-6-sulfonamide], the EC50 in assay [1] fell in the range of 100 to 1000 nM. The compound also returned an IC50 in assay [2] of under 30 nM. As to `O=c1[nH]c2cc(Cl)c(S(=O)(=O)Nc3ccc(-c4ccc(F)cc4)c(Cl)c3)cc2[nH]c1=O` [Compound 12, 7-chloro-N-(2-chloro-4′-fluoro-[1,1′-biphenyl]-4-yl)-2,3-dioxo-1,2,3,4-tetrahydroquinoxaline-6-sulfonamide], in assay [1], the concentration for a half-maximal effect (EC50) fell in the range of 100 to 1000 nM. This compound also gave an IC50 in assay [2] of under 30 nM.

Regarding `Cc1cc2[nH]c(=O)c(=O)[nH]c2cc1S(=O)(=O)Nc1ccc(-c2ccc3c(c2)NCC3)c(Cl)c1` [Compound 13, N-(3-chloro-4-(indolin-6-yl)phenyl)-7-methyl-2,3-dioxo-1,2,3,4-tetrahydroquinoxaline-6-sulfonamide], the EC50 in assay [1] was in the range of 100 to 1000 nM. Besides, the IC50 in assay [2] was under 30 nM. In the same order, the values of `O=c1[nH]c2cc(Cl)c(S(=O)(=O)Nc3ccc(-c4ccccc4)c(Cl)c3)cc2[nH]c1=O` [Compound 14, 7-chloro-N-(2-chloro-[1,1′-biphenyl]-4-yl)-2,3-dioxo-1,2,3,4-tetrahydroquinoxaline-6-sulfonamide] are 100 to 1000 nM and under 30 nM. Take `O=c1[nH]c2cc(Br)c(S(=O)(=O)Nc3ccc(OC(F)(F)F)cc3)cc2[nH]c1=O` [Compound 15, 7-bromo-2,3-dioxo-N-(4-(trifluoromethoxy)phenyl)-1,2,3,4-tetrahydroquinoxaline-6-sulfonamide]: in assay [1], the EC50 was in the range of 30 to 100 nM. The compound further returned an IC50 in assay [2] of under 30 nM.

In assay [1], `Cc1cc2[nH]c(=O)c(=O)[nH]c2cc1S(=O)(=O)Nc1cc(C)c(-c2ccco2)c(C)c1` [Compound 16, N-(4-(furan-2-yl)-3,5-dimethylphenyl)-7-methyl-2,3-dioxo-1,2,3,4-tetrahydroquinoxaline-6-sulfonamide] yielded an EC50 of under 30 nM. Also, in assay [2], the IC50 was under 30 nM.

As to `Cc1cc(NS(=O)(=O)c2cc3[nH]c(=O)c(=O)[nH]c3cc2C)ccc1-c1ccccc1` [Compound 17, 7-methyl-N-(2-methyl-[1,1′-biphenyl]-4-yl)-2,3-dioxo-1,2,3,4-tetrahydroquinoxaline-6-sulfonamide], the EC50 in assay [1] is under 30 nM. For the same compound, the IC50 in assay [2] was under 30 nM.

Take `O=c1[nH]c2cc(F)c(S(=O)(=O)Nc3ccc(-c4ccc(F)cc4)c(Cl)c3)cc2[nH]c1=O` [Compound 18, N-(2-chloro-4′-fluoro-[1,1′-biphenyl]-4-yl)-7-fluoro-2,3-dioxo-1,2,3,4-tetrahydroquinoxaline-6-sulfonamide]: the EC50 in assay [1] fell in the range of 30 to 100 nM. This compound also showed an IC50 in assay [2] of under 30 nM. The compound `O=c1[nH]c2cc(Cl)c(S(=O)(=O)Nc3ccc(-c4ccc(F)c(Cl)c4)c(Cl)c3)cc2[nH]c1=O` [Compound 19, 7-chloro-N-(2,3′-dichloro-4′-fluoro-[1,1′-biphenyl]-4-yl)-2,3-dioxo-1,2,3,4-tetrahydroquinoxaline-6-sulfonamide] yielded an EC50 in assay [1] of 100 to 1000 nM. In assay [2], this compound yielded an IC50 of under 30 nM. In the same order, the values of `CCc1cc2[nH]c(=O)c(=O)[nH]c2cc1S(=O)(=O)Nc1ccc(OC(F)(F)F)cc1` [Compound 20, 7-ethyl-2,3-dioxo-N-(4-(trifluoromethoxy)phenyl)-1,2,3,4-tetrahydroquinoxaline-6-sulfonamide] are 30 to 100 nM and under 30 nM. Take `O=c1[nH]c2cc(Cl)c(S(=O)(=O)Nc3ccc(-c4cccc(N5CCCC5)c4)c(Cl)c3)cc2[nH]c1=O` [Compound 21, 7-chloro-N-(2-chloro-3′-(pyrrolidin-1-yl)-[1,1′-biphenyl]-4-yl)-2,3-dioxo-1,2,3,4-tetrahydroquinoxaline-6-sulfonamide]: in assay [1], the EC50 was 100 to 1000 nM. For the same compound, the IC50 in assay [2] is under 30 nM. `Cc1cc2[nH]c(=O)c(=O)[nH]c2cc1S(=O)(=O)Nc1ccc(-c2ccoc2)c(Cl)c1` [Compound 22, N-(3-chloro-4-(furan-3-yl)phenyl)-7-methyl-2,3-dioxo-1,2,3,4-tetrahydroquinoxaline-6-sulfonamide] came in with an EC50 in assay [1] of 100 to 1000 nM. In addition, in assay [2], the IC50 is under 30 nM.

Regarding `Cc1cccc(-c2ccc(NS(=O)(=O)c3cc4[nH]c(=O)c(=O)[nH]c4cc3C)cc2Cl)c1` [Compound 23, N-(2-chloro-3′-methyl-[1,1′-biphenyl]-4-yl)-7-methyl-2,3-dioxo-1,2,3,4-tetrahydroquinoxaline-6-sulfonamide], in assay [1], the EC50 was 30 to 100 nM. The IC50 in assay [2] is under 30 nM. Turning to `Cc1cc2[nH]c(=O)c(=O)[nH]c2cc1S(=O)(=O)Nc1ccc(-c2cccs2)c(Cl)c1` [Compound 24, N-(3-chloro-4-(thiophen-2-yl)phenyl)-7-methyl-2,3-dioxo-1,2,3,4-tetrahydroquinoxaline-6-sulfonamide], the EC50 in assay [1] lay within 30 to 100 nM. In addition, the IC50 in assay [2] was under 30 nM.

In the case of `O=c1[nH]c2cc(Cl)c(S(=O)(=O)Nc3ccc(-c4ccccc4F)c(Cl)c3)cc2[nH]c1=O` [Compound 25, 7-chloro-N-(2-chloro-2′-fluoro-[1,1′-biphenyl]-4-yl)-2,3-dioxo-1,2,3,4-tetrahydroquinoxaline-6-sulfonamide], in assay [1], the EC50 lay in the range of 100 to 1000 nM. The compound further registered an IC50 in assay [2] of under 30 nM. In assay [2], `Cc1cc2[nH]c(=O)c(=O)[nH]c2cc1S(=O)(=O)Nc1ccc2c(c1)OC(F)(F)O2` [Compound 241, N-(2,2-difluorobenzo[d][1,3]dioxol-5-yl)-7-methyl-2,3-dioxo-1,2,3,4-tetrahydroquinoxaline-6-sulfonamide] displayed an EC50 of 100 to 1000 nM. Still for that read-out and setting: to `Cc1cc2[nH]c(=O)c(=O)[nH]c2cc1S(=O)(=O)Nc1ccc2c(c1)OCCO2` [Compound 242, N-(2,3-dihydrobenzo[b][1,4]dioxin-6-yl)-7-methyl-2,3-dioxo-1,2,3,4-tetrahydroquinoxaline-6-sulfonamide] belongs 100 to 1000 nM; to `COc1ccc(-c2ccc(NS(=O)(=O)c3cc4[nH]c(=O)c(=O)[nH]c4cc3C)cc2Cl)cc1C(N)=O` [Compound 395, 5-[2-chloro-4-[(7-methyl-2,3-dioxo-1,4-dihydroquinoxalin-6-yl)sulfonylamino]phenyl]-2-methoxy-benzamide], 1000 to 3500 nM; to `Cc1cc2[nH]c(=O)c(=O)[nH]c2cc1S(=O)(=O)Nc1ccc(-c2ccc(F)cc2)c(S(C)(=O)=O)c1` [Compound 397, N-[4-(4-fluorophenyl)-3-methylsulfonyl-phenyl]-7-methyl-2,3-dioxo-1,4-dihydroquinoxaline-6-sulfonamide], 1000 to 3500 nM.

Broadly, the EC50 is the concentration giving half of the maximal effect. Read a low EC50 as an effect from little substance. As usually defined, the IC50 is the concentration that gives 50% inhibition.
